Tested on: HOP-62 complex spheroids with HUVEC/MSC, viability
Experiment: Anticancer human tumor HOP-62 cell line growth inhibition [RAS];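 also: spheroids exposed to agents for seven days before readout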;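 as to viability, T/C: 100% = DMSO vehicle control viability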
Conditions: for IC50: curve of first compound; for viability, T/C: stronger effect = lower value; active = viability on the fitted dose curve at most 10% of control; inactive = the rest
Outline: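 Agents were tested in combination matrices in half-log decrements from a top concentration at or near clinical Cmax (10 microM if undetermined). Targets were multi-cell spheroids of tumour lines plus HUVEC and MSC stromal cells.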

[1] = second compound 0.00316 µM, first compound 0.0316 µM
[2] = second compound 0.00316 µM, first compound 0.1 µM
[3] = second compound 0.00316 µM, first compound 0.316 µM
[4] = second compound 0.00316 µM, first compound 1 µM
[5] = second compound 0.00316 µM, first compound 3.16 µM
[6] = second compound 0.00316 µM, first compound 10 µM
[7] = second compound 0.01 µM, first compound 0.0316 µM
[8] = second compound 0.01 µM, first compound 0.1 µM
[9] = second compound 0.01 µM, first compound 0.316 µM
[10] = second compound 0.01 µM, first compound 1 µM
[11] = second compound 0.01 µM, first compound 3.16 µM
[12] = second compound 0.01 µM, first compound 10 µM
[13] = second compound 0.0316 µM, first compound 0.0316 µM
[14] = second compound 0.0316 µM, first compound 0.1 µM
[15] = second compound 0.0316 µM, first compound 0.316 µM
[16] = second compound 0.0316 µM, first compound 1 µM
[17] = second compound 0.0316 µM, first compound 3.16 µM
[18] = second compound 0.0316 µM, first compound 10 µM
[19] = second compound 0.1 µM, first compound 0.0316 µM
[20] = second compound 0.1 µM, first compound 0.1 µM
[21] = second compound 0.1 µM, first compound 0.316 µM
[22] = second compound 0.1 µM, first compound 1 µM
[23] = second compound 0.1 µM, first compound 3.16 µM
[24] = second compound 0.1 µM, first compound 10 µM
[25] = second compound 0.316 µM, first compound 0.0316 µM
[26] = second compound 0.316 µM, first compound 0.1 µM
[27] = second compound 0.316 µM, first compound 0.316 µM
[28] = second compound 0.316 µM, first compound 1 µM
[29] = second compound 0.316 µM, first compound 3.16 µM
[30] = second compound 0.316 µM, first compound 10 µM
[31] = second compound 1 µM, first compound 0.0316 µM
[32] = second compound 1 µM, first compound 0.1 µM
[33] = second compound 1 µM, first compound 0.316 µM
[34] = second compound 1 µM, first compound 1 µM
[35] = second compound 1 µM, first compound 3.16 µM
[36] = second compound 1 µM, first compound 10 µM

CC1(O)CCCC1n1c(=O)c(C(F)F)cc2cnc(NC3CCN(S(C)(=O)=O)CC3)nc21 (stereo not given) + C=CC(=O)N1CCN(c2nc(OCC3CCCN3C)nc3c(F)c(-c4nc(N)cc(C)c4C(F)(F)F)c(Cl)cc23)C(C)C1
< 31.6 nM: IC50 (second compound 0.316 µM)
94.8 nM: IC50 (second compound 0.01 µM)
active: viability, T/C [6] 1.76% | viability, T/C [12] 0.91% | viability, T/C [18] 0.75% | viability, T/C [24] 0.8% | viability, T/C [30] 0.96% | viability, T/C [36] 1.08%
81.2 nM: IC50 (second compound 0.1 µM)
40.3 nM: IC50 (second compound 0.0316 µM)
inactive: viability, T/C [1] 64% | viability, T/C [2] 47.8% | viability, T/C [3] 38.4% | viability, T/C [4] 35.6% | viability, T/C [5] 32.3% | viability, T/C [7] 66.3% | viability, T/C [8] 43.9% | viability, T/C [9] 28.7% | viability, T/C [10] 34% | viability, T/C [11] 27.7% | viability, T/C [13] 55.5% | viability, T/C [14] 39.8% | viability, T/C [15] 29.9% | viability, T/C [16] 28.3% | viability, T/C [17] 22.9% | viability, T/C [19] 66.5% | viability, T/C [20] 40% | viability, T/C [21] 30.1% | viability, T/C [22] 30% | viability, T/C [23] 29.5% | viability, T/C [25] 53.6% | viability, T/C [26] 37.6% | viability, T/C [27] 30.6% | viability, T/C [28] 32.6% | viability, T/C [29] 21.9% | viability, T/C [31] 59.4% | viability, T/C [32] 39.4% | viability, T/C [33] 29.9% | viability, T/C [34] 27.2% | viability, T/C [35] 25.7%
55.7 nM: IC50 (second compound 1 µM)
140 nM: IC50 (second compound 0.00316 µM)

CCC(CC)c1cc(NC2CCC(N)C2)n2nccc2n1 (stereo not given) + C=CC(=O)N1CCN(c2nc(OCC3CCCN3C)nc3c(F)c(-c4nc(N)cc(C)c4C(F)(F)F)c(Cl)cc23)C(C)C1
1450 nM: IC50 (second compound 0.0316 µM)
1380 nM: IC50 (second compound 1 µM)
1430 nM: IC50 (second compound 0.00316 µM) | IC50 (second compound 0.1 µM)
1360 nM: IC50 (second compound 0.316 µM)
active: viability, T/C [5] 2.08% | viability, T/C [6] 1.07% | viability, T/C [11] 1.41% | viability, T/C [12] 0.46% | viability, T/C [17] 0.98% | viability, T/C [18] 0.34% | viability, T/C [23] 2.62% | viability, T/C [24] 0.16% | viability, T/C [29] 0.89% | viability, T/C [30] 0.5% | viability, T/C [35] 1.28% | viability, T/C [36] 0.62%
inactive: viability, T/C [1] 82.5% | viability, T/C [2] 79.4% | viability, T/C [3] 88.6% | viability, T/C [4] 71.8% | viability, T/C [7] 77.7% | viability, T/C [8] 69.6% | viability, T/C [9] 70.3% | viability, T/C [10] 65.5% | viability, T/C [13] 75.2% | viability, T/C [14] 68.4% | viability, T/C [15] 76.5% | viability, T/C [16] 73.2% | viability, T/C [19] 66.2% | viability, T/C [20] 70.5% | viability, T/C [21] 74.6% | viability, T/C [22] 73.5% | viability, T/C [25] 70.7% | viability, T/C [26] 68.9% | viability, T/C [27] 71.4% | viability, T/C [28] 68.2% | viability, T/C [31] 62.5% | viability, T/C [32] 69.9% | viability, T/C [33] 70.9% | viability, T/C [34] 73.4%
1320 nM: IC50 (second compound 0.01 µM)

CCN1CCN(Cc2ccc(Nc3ncc(F)c(-c4cc(F)c5nc(C)n(C(C)C)c5c4)n3)nc2)CC1 + C=CC(=O)N1CCN(c2nc(OCC3CCCN3C)nc3c(F)c(-c4nc(N)cc(C)c4C(F)(F)F)c(Cl)cc23)C(C)C1
110 nM: IC50 (second compound 0.0316 µM)
613 nM: IC50 (second compound 0.316 µM)
inactive: viability, T/C (second compound 0.00316 µM, first compound 0.00316 µM) 87.7% | viability, T/C (second compound 0.00316 µM, first compound 0.01 µM) 84.1% | viability, T/C [1] 69.2% | viability, T/C [2] 73% | viability, T/C [3] 64.8% | viability, T/C [4] 55.5% | viability, T/C (second compound 0.01 µM, first compound 0.00316 µM) 71.5% | viability, T/C (second compound 0.01 µM, first compound 0.01 µM) 64.3% | viability, T/C [7] 62.5% | viability, T/C [8] 55.9% | viability, T/C [9] 57.3% | viability, T/C [10] 48.8% | viability, T/C (second compound 0.0316 µM, first compound 0.00316 µM) 72.2% | viability, T/C (second compound 0.0316 µM, first compound 0.01 µM) 74.3% | viability, T/C [13] 59% | viability, T/C [14] 52.8% | viability, T/C [15] 47.6% | viability, T/C [16] 46.9% | viability, T/C (second compound 0.1 µM, first compound 0.00316 µM) 69.7% | viability, T/C (second compound 0.1 µM, first compound 0.01 µM) 57.6% | viability, T/C [19] 59.9% | viability, T/C [20] 51.3% | viability, T/C [21] 68.2% | viability, T/C [22] 45.2% | viability, T/C (second compound 0.316 µM, first compound 0.00316 µM) 69% | viability, T/C (second compound 0.316 µM, first compound 0.01 µM) 70.6% | viability, T/C [25] 68.8% | viability, T/C [26] 50.2% | viability, T/C [27] 58% | viability, T/C [28] 46.8% | viability, T/C (second compound 1 µM, first compound 0.00316 µM) 66.7% | viability, T/C (second compound 1 µM, first compound 0.01 µM) 58.6% | viability, T/C [31] 50.6% | viability, T/C [32] 59.9% | viability, T/C [33] 54.7% | viability, T/C [34] 47.1%
> 1000 nM: IC50 (second compound 0.00316 µM) | IC50 (second compound 0.01 µM) | IC50 (second compound 0.1 µM) | IC50 (second compound 1 µM)

C[C@@H](NC(=O)c1ncnc(N)c1Cl)c1ncc(C(=O)Nc2cc(C(F)(F)F)c(Cl)cn2)s1 + C=CC(=O)N1CCN(c2nc(OCC3CCCN3C)nc3c(F)c(-c4nc(N)cc(C)c4C(F)(F)F)c(Cl)cc23)C(C)C1
8690 nM: IC50 (second compound 0.01 µM)
> 10000 nM: IC50 (second compound 0.00316 µM) | IC50 (second compound 0.316 µM) | IC50 (second compound 1 µM)
4320 nM: IC50 (second compound 0.0316 µM)
7860 nM: IC50 (second compound 0.1 µM)
inactive: viability, T/C [1] 88.6% | viability, T/C [2] 80.2% | viability, T/C [3] 80.9% | viability, T/C [4] 83.9% | viability, T/C [5] 71.8% | viability, T/C [6] 53.3% | viability, T/C [7] 74.8% | viability, T/C [8] 67% | viability, T/C [9] 69.7% | viability, T/C [10] 67.1% | viability, T/C [11] 63.4% | viability, T/C [12] 48.1% | viability, T/C [13] 69.1% | viability, T/C [14] 67% | viability, T/C [15] 71.1% | viability, T/C [16] 70% | viability, T/C [17] 52.2% | viability, T/C [18] 43.9% | viability, T/C [19] 69.2% | viability, T/C [20] 68.5% | viability, T/C [21] 64% | viability, T/C [22] 70.3% | viability, T/C [23] 58% | viability, T/C [24] 47.6% | viability, T/C [25] 67.5% | viability, T/C [26] 67% | viability, T/C [27] 69.8% | viability, T/C [28] 64.7% | viability, T/C [29] 57.7% | viability, T/C [30] 49.2% | viability, T/C [31] 66.7% | viability, T/C [32] 63.3% | viability, T/C [33] 64.1% | viability, T/C [34] 63.6% | viability, T/C [35] 55.9% | viability, T/C [36] 52.4%

Cc1nc(N2CCC3(CC2)COC(C)C3N)c(CO)nc1Sc1ccnc(N)c1Cl (stereo not given) + C=CC(=O)N1CCN(c2nc(OCC3CCCN3C)nc3c(F)c(-c4nc(N)cc(C)c4C(F)(F)F)c(Cl)cc23)C(C)C1
inactive: viability, T/C [1] 68.6% | viability, T/C [2] 52.6% | viability, T/C [3] 40.3% | viability, T/C [4] 28.7% | viability, T/C [5] 14.1% | viability, T/C [6] 13.8% | viability, T/C [7] 58.6% | viability, T/C [8] 46.1% | viability, T/C [9] 32.8% | viability, T/C [10] 21.3% | viability, T/C [11] 10.6% | viability, T/C [13] 52% | viability, T/C [14] 44.8% | viability, T/C [15] 30.5% | viability, T/C [16] 17.4% | viability, T/C [17] 13.7% | viability, T/C [18] 9.06% | viability, T/C [19] 56.5% | viability, T/C [20] 41.5% | viability, T/C [21] 29.1% | viability, T/C [22] 19.5% | viability, T/C [23] 10.4% | viability, T/C [25] 54.8% | viability, T/C [26] 44.8% | viability, T/C [27] 31.1% | viability, T/C [28] 15.5% | viability, T/C [29] 12.1% | viability, T/C [30] 10.7% | viability, T/C [31] 49.6% | viability, T/C [32] 37.8% | viability, T/C [33] 26.1% | viability, T/C [34] 15.1% | viability, T/C [35] 11.7%
< 31.6 nM: IC50 (second compound 1 µM)
72 nM: IC50 (second compound 0.01 µM)
43.9 nM: IC50 (second compound 0.0316 µM)
52 nM: IC50 (second compound 0.1 µM)
active: viability, T/C [12] 8.87% | viability, T/C [24] 9.33% | viability, T/C [36] 8.55%
56.7 nM: IC50 (second compound 0.316 µM)
138 nM: IC50 (second compound 0.00316 µM)

Reference: PubChem BioAssay AID2060892 (Molecular Pharmacology Branch, DTP, NCI, 2025)
